Source: patent US12486290B2, “Isoindolinone and indazole compounds for the degradation of EGFR” (C4 THERAPEUTICS, INC., priority 2019, dated 2025)

Legend:
Format in all cases: cell-based
[1] = target: T1, EGFR T790M/L858R (NCI-H1975 cells) (Homo sapiens, UniProt P00533, L858R/T790M); experiment: EGFR (L858R) degradation analysis, Total EGFR (L858R) HTRF, NCI-H1975 cells; conditions: 6 hours
T1 construct: NCI-H1975 (harboring EGFR heterozygous T790M/L858R mutations); host or cells: NCI-H1975
In short: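 Cells (10000/well NCI-H1975 and NCI-H1975+CS, 1000/well NCI-H3255) treated with 11-point half-log titrations from 10 μM top, in duplicate, for 6 hours at 37° C., 5% CO2. Total EGFR (L858R) quantified by HTRF FRET; untreated cells as negative and cell-free wells as positive control.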

[2] = target: T2, EGFR L858R (NCI-H3255 cells) (Homo sapiens, UniProt P00533, L858R); experiment: EGFR (L858R) degradation analysis, Total EGFR (L858R) HTRF, NCI-H3255 cells; conditions: 6 hours
T2 construct: NCI-H3255 (harboring EGFR heterozygous L858R mutation); host or cells: NCI-H3255
From the text: (§1) NCI-H1975 (harboring EGFR heterozygous T790M/L858R mutations) and NCI-H3255 (harboring EGFR heterozygous L858R mutation) were purchased from ATCC and NCI, respectively. NCI-H1975+CS (harboring EGFR heterozygous T/790M/L858R/C797S mutations) was generated using CRISPR technology to introduce the additional C797S mutation by Horizon Discovery. RPMI 1640 no-phenol red medium and fetal bovine serum (FBS) were purchased from Gibco (Grand Island, NY, USA). Cell culture flasks and 384-well microplates were acquired from VWR (Radnor, PA, USA). Total EGFR (L858R) HTRF assay kits were purchased from Cisbio (Bedford, MA, USA).
(§2) Degradation of EGFR protein containing L858R mutation was determined based on quantification of FRET signal using Total EGFR (L858R) HTRF assay kit. Test compounds were added to the 384-well plate from a top concentration of 10 μM with 11 points, half log titration in duplicates. NCI-H1975, NCI-H1975+CS or NCI-H3255 cells were added into 384-well plates at a cell density of 10000, 10000 or 1000 cells per well, respectively. The plates were kept at 37° C. with 5% CO2 for 6 hours. Cells treated in the absence of the test compound were the negative control. Positive control was set by wells containing all reagents but no cells. FRET signal was acquired on EnVision™ Multilabel Reader (PerkinElmer, Santa Clara, CA, USA).

[3] = target: T3, EGFR T790M/L858R/C797S (NCI-H1975+CS cells) (Homo sapiens, UniProt P00533, C797S/L858R/T790M); experiment: EGFR (L858R) degradation analysis, Total EGFR (L858R) HTRF, NCI-H1975+CS cells; conditions: 6 hours, read-out: H1975 C797S clone EGFR DC50
T3 construct: NCI-H1975+CS (harboring EGFR heterozygous T/790M/L858R/C797S mutations) was generated using CRISPR technology; host or cells: NCI-H1975+CS (CRISPR-edited NCI-H1975)
From the text: as §1, §2

T2 sequence (P00533 25-1210 L858R): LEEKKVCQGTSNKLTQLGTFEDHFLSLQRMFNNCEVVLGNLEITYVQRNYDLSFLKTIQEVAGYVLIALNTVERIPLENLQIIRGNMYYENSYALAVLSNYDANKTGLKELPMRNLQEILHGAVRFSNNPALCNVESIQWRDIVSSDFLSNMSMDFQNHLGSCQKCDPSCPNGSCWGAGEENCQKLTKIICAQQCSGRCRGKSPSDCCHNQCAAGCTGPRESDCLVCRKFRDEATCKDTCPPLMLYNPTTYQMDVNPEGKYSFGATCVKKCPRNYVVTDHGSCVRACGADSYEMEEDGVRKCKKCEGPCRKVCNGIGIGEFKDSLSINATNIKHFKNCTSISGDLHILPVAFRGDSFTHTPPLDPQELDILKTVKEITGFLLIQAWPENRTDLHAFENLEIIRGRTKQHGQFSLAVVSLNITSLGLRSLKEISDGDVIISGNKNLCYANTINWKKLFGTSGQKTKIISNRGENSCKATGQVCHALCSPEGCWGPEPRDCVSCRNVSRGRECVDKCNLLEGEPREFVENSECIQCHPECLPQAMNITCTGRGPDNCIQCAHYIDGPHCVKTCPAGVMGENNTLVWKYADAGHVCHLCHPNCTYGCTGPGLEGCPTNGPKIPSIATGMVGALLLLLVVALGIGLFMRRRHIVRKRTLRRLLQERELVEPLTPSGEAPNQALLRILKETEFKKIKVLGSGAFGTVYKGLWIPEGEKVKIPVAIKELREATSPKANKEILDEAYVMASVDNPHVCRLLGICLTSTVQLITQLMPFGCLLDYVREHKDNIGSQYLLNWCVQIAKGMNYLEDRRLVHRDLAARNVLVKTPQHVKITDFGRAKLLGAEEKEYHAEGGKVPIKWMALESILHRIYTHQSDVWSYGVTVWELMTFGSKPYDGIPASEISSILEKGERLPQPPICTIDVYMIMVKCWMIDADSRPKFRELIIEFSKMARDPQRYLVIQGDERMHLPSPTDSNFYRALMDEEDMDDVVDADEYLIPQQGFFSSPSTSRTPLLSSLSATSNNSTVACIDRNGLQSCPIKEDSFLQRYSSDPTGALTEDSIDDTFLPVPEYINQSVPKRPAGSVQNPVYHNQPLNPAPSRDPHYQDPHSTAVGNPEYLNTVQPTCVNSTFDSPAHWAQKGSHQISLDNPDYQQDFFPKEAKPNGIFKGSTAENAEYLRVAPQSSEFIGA
T1 sequence (P00533 25-1210 T790M/L858R): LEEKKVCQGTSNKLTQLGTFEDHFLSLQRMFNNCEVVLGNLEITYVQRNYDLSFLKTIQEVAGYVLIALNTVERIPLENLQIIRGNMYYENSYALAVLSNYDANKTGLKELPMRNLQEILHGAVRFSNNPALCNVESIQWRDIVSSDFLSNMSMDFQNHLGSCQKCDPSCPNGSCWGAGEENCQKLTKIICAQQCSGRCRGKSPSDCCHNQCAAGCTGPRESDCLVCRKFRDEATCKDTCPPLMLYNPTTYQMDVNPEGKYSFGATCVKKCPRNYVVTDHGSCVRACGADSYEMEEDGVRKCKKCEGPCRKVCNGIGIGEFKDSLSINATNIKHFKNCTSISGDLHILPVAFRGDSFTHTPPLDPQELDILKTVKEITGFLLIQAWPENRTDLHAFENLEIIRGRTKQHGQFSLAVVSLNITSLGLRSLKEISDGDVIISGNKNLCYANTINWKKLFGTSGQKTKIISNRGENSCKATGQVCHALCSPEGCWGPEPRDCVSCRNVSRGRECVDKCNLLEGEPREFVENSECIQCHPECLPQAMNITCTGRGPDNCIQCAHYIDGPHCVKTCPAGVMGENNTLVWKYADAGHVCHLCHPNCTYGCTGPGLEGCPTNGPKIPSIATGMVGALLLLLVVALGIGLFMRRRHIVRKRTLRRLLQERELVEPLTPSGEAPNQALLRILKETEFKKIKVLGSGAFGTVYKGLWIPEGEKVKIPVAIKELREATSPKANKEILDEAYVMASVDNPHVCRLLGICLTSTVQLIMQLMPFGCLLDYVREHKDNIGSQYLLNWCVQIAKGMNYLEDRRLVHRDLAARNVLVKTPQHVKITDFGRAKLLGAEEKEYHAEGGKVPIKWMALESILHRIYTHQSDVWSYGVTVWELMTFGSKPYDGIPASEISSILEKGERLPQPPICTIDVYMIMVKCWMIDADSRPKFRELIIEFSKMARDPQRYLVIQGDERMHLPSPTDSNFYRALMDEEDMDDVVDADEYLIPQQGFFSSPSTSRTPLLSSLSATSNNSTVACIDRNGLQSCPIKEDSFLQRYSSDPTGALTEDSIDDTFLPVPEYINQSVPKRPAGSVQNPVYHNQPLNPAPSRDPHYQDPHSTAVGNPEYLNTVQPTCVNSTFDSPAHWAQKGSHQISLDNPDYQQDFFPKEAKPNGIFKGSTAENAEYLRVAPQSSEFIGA
T3 sequence (P00533 25-1210 T790M/C797S/L858R): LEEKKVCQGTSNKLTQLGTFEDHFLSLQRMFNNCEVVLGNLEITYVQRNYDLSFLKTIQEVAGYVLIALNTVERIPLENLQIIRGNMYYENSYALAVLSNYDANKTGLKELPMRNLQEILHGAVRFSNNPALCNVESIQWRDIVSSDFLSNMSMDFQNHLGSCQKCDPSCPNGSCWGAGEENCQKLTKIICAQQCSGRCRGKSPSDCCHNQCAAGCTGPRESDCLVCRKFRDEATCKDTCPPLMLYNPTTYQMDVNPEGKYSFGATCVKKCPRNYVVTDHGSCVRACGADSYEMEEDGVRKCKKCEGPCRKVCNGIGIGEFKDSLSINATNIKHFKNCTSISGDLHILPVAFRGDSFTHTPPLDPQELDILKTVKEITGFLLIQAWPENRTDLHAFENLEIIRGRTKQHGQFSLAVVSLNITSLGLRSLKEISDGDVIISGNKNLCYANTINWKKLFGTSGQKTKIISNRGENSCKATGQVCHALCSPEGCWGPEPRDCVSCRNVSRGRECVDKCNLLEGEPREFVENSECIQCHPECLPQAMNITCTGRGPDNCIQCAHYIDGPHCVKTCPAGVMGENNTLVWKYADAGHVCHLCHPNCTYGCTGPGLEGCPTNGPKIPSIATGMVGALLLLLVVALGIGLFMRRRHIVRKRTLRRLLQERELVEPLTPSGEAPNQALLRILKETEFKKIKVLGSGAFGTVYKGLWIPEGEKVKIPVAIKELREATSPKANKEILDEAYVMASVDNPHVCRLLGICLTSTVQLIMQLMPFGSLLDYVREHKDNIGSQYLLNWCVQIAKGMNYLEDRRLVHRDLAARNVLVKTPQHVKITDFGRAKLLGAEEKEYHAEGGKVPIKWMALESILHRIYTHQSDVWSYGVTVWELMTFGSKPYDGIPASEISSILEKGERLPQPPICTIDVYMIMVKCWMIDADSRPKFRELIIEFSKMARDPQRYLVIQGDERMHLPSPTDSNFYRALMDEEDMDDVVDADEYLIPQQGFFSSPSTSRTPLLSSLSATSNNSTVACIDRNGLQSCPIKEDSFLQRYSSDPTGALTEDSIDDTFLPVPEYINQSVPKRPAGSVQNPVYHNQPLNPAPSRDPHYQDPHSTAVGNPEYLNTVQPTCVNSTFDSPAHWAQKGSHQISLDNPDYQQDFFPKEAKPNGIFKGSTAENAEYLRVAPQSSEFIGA

Row | Compound | DC50 [1] | DC50 [2] | DC50 [3]
1 | O=C1CCC(Nc2ccc(C3CCN(CC(=O)N4CCN(c5ccc(-c6cc(F)c7c(c6)C(=O)N(C(C(=O)Nc6ccccn6)c6ncn8c6CCC8)C7)cc5)CC4)CC3)c(F)c2)C(=O)N1 (stereo not drawn) [Compound 20, 2-(6,7-dihydro-5H-pyrrolo[1,2-c]imidazol-1-yl)-2-[6-[4-[4-[2-[4-[4-[(2,6-dioxo-3-piperidyl)amino]-2-fluoro-phenyl]-1-piperidyl]acetyl]piperazin-1-yl]phenyl]-4-fluoro-1-oxo-isoindolin-2-yl]-N-(2-pyridyl)acetamide] | 0.059 µM | 0.025 µM | 0.034 µM
2 | O=C1CC[C@H](Nc2ccc(C3CCN(C(=O)CN4CCN(Cc5ccc(-c6cc(F)c7c(c6)C(=O)N(C(C(=O)Nc6nccs6)c6ncn8c6CCC8)C7)cc5)CC4)CC3)c(F)c2)C(=O)N1 (stereo partly drawn) [Compound 59, 2-(6,7-dihydro-5H-pyrrolo[1,2-c]imidazol-1-yl)-2-[6-[4-[[4-[2-[4-[4-[[(3S)-2,6-dioxo-3-piperidyl]amino]-2-fluoro-phenyl]-1-piperidyl]-2-oxo-ethyl]piperazin-1-yl]methyl]phenyl]-4-fluoro-1-oxo-isoindolin-2-yl]-N-thiazol-2-yl-acetamide] | 0.019 µM | 0.012 µM | 0.008 µM
3 | O=C1CCC(Nc2ccc(C3CCN(CC(=O)N4CCC(c5ccc(-c6cc(F)c7c(c6)C(=O)N(C(C(=O)Nc6nccs6)c6ncn8c6CCC8)C7)cc5)CC4)CC3)cc2)C(=O)N1 (stereo not drawn) [Compound 21, 2-(6,7-dihydro-5H-pyrrolo[1,2-c]imidazol-1-yl)-2-(6-(4-(1-(2-(4-(4-((2,6-dioxopiperidin-3-yl)amino)phenyl)piperidin-1-yl)acetyl)piperidin-4-yl)phenyl)-4-fluoro-1-oxoisoindolin-2-yl)-N-(thiazol-2-yl)acetamide] | 0.031 µM | 0.011 µM | 0.017 µM
4 | O=C1CCC(Nc2ccc(C3CCN(CC(=O)N4CCN(c5ccc(-c6cc(F)c7c(c6)C(=O)N(C(C(=O)Nc6nccs6)c6ncn8c6CCC8)C7)cc5)CC4)CC3)c(C(F)F)c2)C(=O)N1 (stereo not drawn) [Compound 15, 2-[6-[4-[4-[2-[4-[2-(difluoromethyl)-4-[(2,6-dioxo-3-piperidyl)amino]phenyl]-1-piperidyl]acetyl]piperazin-1-yl]phenyl]-4-fluoro-1-oxo-isoindolin-2-yl]-2-(6,7-dihydro-5H-pyrrolo[1,2-c]imidazol-1-yl)-N-thiazol-2-yl-acetamide] | 0.034 µM | 0.006 µM | 0.01 µM
5 | O=C1CC[C@@H](Nc2ccc(C3CCN(CC(=O)N4CCC(Oc5ccc(-c6cc(F)c7c(c6)C(=O)N(C(C(=O)Nc6nccs6)c6ncn8c6CCC8)C7)cc5)CC4)CC3)cc2)C(=O)N1 (stereo partly drawn) [Compound 33, 2-(6,7-dihydro-5H-pyrrolo[1,2-c]imidazol-1-yl)-2-[6-[4-[[1-[2-[4-[4-[[(3R)-2,6-dioxo-3-piperidyl]amino]phenyl]-1-piperidyl]acetyl]-4-piperidyl]oxy]phenyl]-4-fluoro-1-oxo-isoindolin-2-yl]-N-thiazol-2-yl-acetamide] | 0.038 µM | 0.008 µM | 0.019 µM
6 | O=C1CC[C@H](Nc2ccc(C3CCN(CC(=O)N4CCC(Oc5ccc(-c6cc(F)c7c(c6)C(=O)N(C(C(=O)Nc6nccs6)c6ncn8c6CCC8)C7)cc5)CC4)CC3)cc2)C(=O)N1 (stereo partly drawn) [Compound 32, 2-(6,7-dihydro-5H-pyrrolo[1,2-c]imidazol-1-yl)-2-[6-[4-[[1-[2-[4-[4-[[(3S)-2,6-dioxo-3-piperidyl]amino]phenyl]-1-piperidyl]acetyl]-4-piperidyl]oxy]phenyl]-4-fluoro-1-oxo-isoindolin-2-yl]-N-thiazol-2-yl-acetamide] | 0.047 µM | 0.012 µM | 0.011 µM
7 | O=C1CCC(Nc2ccc(C3CCN(CC(=O)N4CCC(NC(=O)c5ccc(C#Cc6cc(F)c7c(c6)C(=O)N(C(C(=O)Nc6nccs6)c6ncn8c6CCC8)C7)cn5)CC4)CC3)cc2)C(=O)N1 (racemic) [Compound 1, 5-[2-[7-Fluoro-3-oxo-2-[(1RS)-1-(6,7-dihydro-5H-pyrrolo[1,2-c]imidazol-1-yl)-2-oxo-2-(thiazol-2-ylamino)ethyl]isoindolin-5-yl]ethynyl]-N-[1-[2-[4-[4-[[(3RS)-2,6-dioxo-3-piperidyl]amino]phenyl]-1-piperidyl]acetyl]-4-piperidyl]pyridine-2-carboxamide] | 0.006 µM | 0.008 µM | 0.017 µM
8 | O=C1CC[C@H](Nc2ccc(C3CCN(CC(=O)N4CCC(n5cc(-c6cc(F)c7c(c6)C(=O)N(C(C(=O)Nc6nccs6)c6ncn8c6CCC8)C7)cn5)CC4)CC3)cc2)C(=O)N1 (stereo partly drawn) [Compound 28, 2-(6,7-dihydro-5H-pyrrolo[1,2-c]imidazol-1-yl)-2-[6-[1-[1-[2-[4-[4-[[(3S)-2,6-dioxo-3-piperidyl]amino]phenyl]-1-piperidyl]acetyl]-4-piperidyl]pyrazol-4-yl]-4-fluoro-1-oxo-isoindolin-2-yl]-N-thiazol-2-yl-acetamide] | 0.016 µM | 0.017 µM | –
9 | Cn1nc(N2CCC(=O)NC2=O)c2ccc(C3CCN(CC(=O)N4CC5(C4)CN(c4ccc(-c6cc(F)c7c(c6)C(=O)N(C(C(=O)Nc6nccs6)c6ncn8c6CCC8)C7)cc4)C5)CC3)cc21 (stereo not drawn) [Compound 49, 2-(6,7-dihydro-5H-pyrrolo[1,2-c]imidazol-1-yl)-2-[6-[4-[2-[2-[4-[3-(2,4-dioxohexahydropyrimidin-1-yl)-1-methyl-indazol-6-yl]-1-piperidyl]acetyl]-2,6-diazaspiro[3.3]heptan-6-yl]phenyl]-4-fluoro-1-oxo-isoindolin-2-yl]-N-thiazol-2-yl-acetamide] | 0.018 µM | 0.01 µM | –
10 | O=C1CC[C@H](Nc2ccc(C3CCN(CC(=O)N4CCC(c5cnn(-c6cc(F)c7c(c6)C(=O)N(C(C(=O)Nc6nccs6)c6ncn8c6CCC8)C7)c5)CC4)CC3)cc2)C(=O)N1 (stereo partly drawn) [Compound 29, 2-(6,7-dihydro-5H-pyrrolo[1,2-c]imidazol-1-yl)-2-[6-[4-[1-[2-[4-[4-[[(3S)-2,6-dioxo-3-piperidyl]amino]phenyl]-1-piperidyl]acetyl]-4-piperidyl]pyrazol-1-yl]-4-fluoro-1-oxo-isoindolin-2-yl]-N-thiazol-2-yl-acetamide] | 0.024 µM | 0.02 µM | –
11 | O=C1CCC(Nc2ccc(C3CCN(C(=O)CN4CCN(c5ccc(-c6cc(F)c7c(c6)C(=O)N(C(C(=O)Nc6nccs6)c6ncn8c6CCC8)C7)cc5)CC4)CC3)cc2)C(=O)N1 (stereo not drawn) [Compound 10, 2-(6,7-dihydro-5H-pyrrolo[1,2-c]imidazol-1-yl)-2-(6-(4-(4-(2-(4-(4-((2,6-dioxopiperidin-3-yl)amino)phenyl)piperidin-1-yl)-2-oxoethyl)piperazin-1-yl)phenyl)-4-fluoro-1-oxoisoindolin-2-yl)-N-(thiazol-2-yl)acetamide] | 0.021 µM | 0.019 µM | –
12 | O=C1CC[C@H](Nc2ccc(C3CCN(CC(=O)N4CCC(Cc5ccc(-c6cc(F)c7c(c6)C(=O)N(C(C(=O)Nc6nccs6)c6ncn8c6CCC8)C7)cc5)CC4)CC3)c(F)c2)C(=O)N1 (stereo partly drawn) [Compound 60, 2-(6,7-dihydro-5H-pyrrolo[1,2-c]imidazol-1-yl)-2-[6-[4-[[1-[2-[4-[4-[[(3S)-2,6-dioxo-3-piperidyl]amino]-2-fluoro-phenyl]-1-piperidyl]acetyl]-4-piperidyl]methyl]phenyl]-4-fluoro-1-oxo-isoindolin-2-yl]-N-thiazol-2-yl-acetamide] | 0.052 µM | 0.028 µM | –
13 | O=C1CC[C@H](Nc2ccc(C3CCN(CC(=O)N4CCN(c5ccc(-c6cc(F)c7c(c6)C(=O)N(C(C(=O)Nc6nccs6)c6ncn8c6CCC8)C7)cn5)CC4)CC3)c(F)c2)C(=O)N1 (stereo partly drawn) [Compound 27, 2-(6,7-dihydro-5H-pyrrolo[1,2-c]imidazol-1-yl)-2-[6-[6-[4-[2-[4-[4-[[(3S)-2,6-dioxo-3-piperidyl]amino]-2-fluoro-phenyl]-1-piperidyl]acetyl]piperazin-1-yl]-3-pyridyl]-4-fluoro-1-oxo-isoindolin-2-yl]-N-thiazol-2-yl-acetamide] | 0.036 µM | 0.02 µM | –
